What all share (format): cell-based
Test [1] deals with LAPC4 prostate cancer cells. Briefly: Antiproliferative effects in LAPC4 cells (CellTiter Glo). The conditions noted are these: LAPC4 cells (AKT1 E17K allele), read-out: LAPC4 proliferation IC50. The method in brief: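 Cells grown in IMDM supplemented with 12% FBS plus 1% P/S were treated for 72 h with DMSO-dissolved compounds. ATP-based luminescence was fitted to a log(inhibitor) versus response Hill model, giving IC50.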

Another test concerns the target T1, AKT1 E17K (Homo sapiens, UniProt P31749, E17K).
T1 construct: expressed in transfected cells; host or cells: HEK293
Briefly: Live cell AKT1 E17K target engagement by NanoBRET competitive probe displacement. The conditions noted are these: HEK293 cells transfected with kinase-NanoLuciferase fusion, 2 h at 37° C. In outline: (§1)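 Live-cell competitive tracer displacement in HEK293 expressing NanoLuciferase-tagged kinase. Compound and ATP-competitive tracer (~EC50) are co-incubated 2 h at 37 °C; BRET (E600/E460) gives IC50.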

The target of the next test is T2, AKT1 WT (Homo sapiens, UniProt P31749).
T2 construct: expressed in transfected cells; host or cells: HEK293
Briefly: Live cell AKT1 WT target engagement by NanoBRET competitive probe displacement. The conditions noted are these: HEK293 cells transfected with kinase-NanoLuciferase fusion, 2 h at 37° C. The method in brief:
as §1

The next test concerns the target T3, AKT2 (Homo sapiens, UniProt P31751).
T3 construct: expressed in transfected cells; host or cells: HEK293
Briefly: Live cell AKT2 target engagement by NanoBRET competitive probe displacement. The conditions noted are these: HEK293 cells transfected with kinase-NanoLuciferase fusion, 2 h at 37° C. In outline:
as §1

This note sets out measurements from patent US12570655B2, “Cysteine covalent modifiers of AKT1 and uses thereof” (Terremoto Biosciences, Inc., priority 2023, dated 2026).

Each structure is given as a SMILES string. Read-outs that look alike come from different tables or passages of the source.

T3 sequence (P31751 whole entry): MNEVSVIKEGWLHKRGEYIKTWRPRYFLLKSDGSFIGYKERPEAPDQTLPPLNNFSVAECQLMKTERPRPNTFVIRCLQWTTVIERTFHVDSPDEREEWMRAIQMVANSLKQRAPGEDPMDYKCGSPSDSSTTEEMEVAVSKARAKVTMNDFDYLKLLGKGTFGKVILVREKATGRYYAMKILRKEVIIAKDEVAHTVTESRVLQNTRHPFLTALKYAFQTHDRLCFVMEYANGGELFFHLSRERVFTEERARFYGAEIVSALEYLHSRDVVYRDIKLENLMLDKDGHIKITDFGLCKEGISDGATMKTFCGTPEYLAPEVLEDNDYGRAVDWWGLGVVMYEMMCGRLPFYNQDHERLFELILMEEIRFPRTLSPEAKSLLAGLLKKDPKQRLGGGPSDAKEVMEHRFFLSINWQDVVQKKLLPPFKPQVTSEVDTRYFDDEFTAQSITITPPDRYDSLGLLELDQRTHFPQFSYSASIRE
T2 sequence (P31749 whole entry): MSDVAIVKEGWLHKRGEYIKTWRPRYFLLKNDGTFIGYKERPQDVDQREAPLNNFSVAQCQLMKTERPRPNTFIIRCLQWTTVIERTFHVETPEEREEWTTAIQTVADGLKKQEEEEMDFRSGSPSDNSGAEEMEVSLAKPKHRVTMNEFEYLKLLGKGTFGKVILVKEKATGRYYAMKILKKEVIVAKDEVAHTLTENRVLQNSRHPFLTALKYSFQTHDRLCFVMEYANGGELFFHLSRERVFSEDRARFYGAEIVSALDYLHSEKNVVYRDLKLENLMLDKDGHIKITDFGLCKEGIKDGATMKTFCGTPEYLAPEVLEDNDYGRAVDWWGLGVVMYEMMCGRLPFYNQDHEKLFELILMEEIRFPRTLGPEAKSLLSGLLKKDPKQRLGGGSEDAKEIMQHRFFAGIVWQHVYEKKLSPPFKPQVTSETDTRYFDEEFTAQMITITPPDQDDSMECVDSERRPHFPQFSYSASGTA
T1 sequence (P31749 whole entry E17K): as the sequence (P31749 whole entry) above, with E17K counted along it

Regarding `C=CC(=O)N1CCC(N[C@@H]2c3ccc(-n4c(-c5cccnc5N)nc5ccc(-n6cccn6)nc54)cc3CC2OC)CC1` (single isomer, unassigned) [Example 162, 1-(4-(((1R,2*)-5-(2-(2-aminopyridin-3-yl)-5-(1H-pyrazol-1-yl)-3H-imidazo[4,5-b]pyridin-3-yl)-2-methoxy-2,3-dihydro-1H-inden-1-yl)amino)piperidin-1-yl)prop-2-en-1-one], the IC50 in test [1] (Homo sapiens, LAPC4, 72 h) stood at 1.6 µM; on AKT1 E17K, 0.645 µM; on AKT1 WT, 0.102 µM; at AKT2, 5.88 µM.

`C=CS(=O)(=O)N1CCC(N[C@H]2CCc3cc(-n4c(-c5cccnc5N)nc5ccc(-n6cccn6)nc54)ccc32)CC1` [Example 61, 3-{3-[(1S)-1-{[1-(ethenesulfonyl)piperidin-4-yl]amino}-2,3-dihydro-1H-inden-5-yl]-5-(pyrazol-1-yl)imidazo[4,5-b]pyridin-2-yl}pyridin-2-amine]: the IC50 in test [1] (Homo sapiens, LAPC4, 72 h) was 0.0724 µM; on AKT1 E17K, 0.0286 µM; on AKT1 WT it was 0.019 µM; on AKT2, 0.0524 µM.

Turning to `C=CC(=O)N1CCC(N[C@H]2CCc3cc(-n4c(-c5cccnc5N)nc5ccc(-n6ccc(C7CCOCC7)n6)nc54)ccc32)CC1` [Example 321, 1-(4-{[(1S)-5-[2-(2-aminopyridin-3-yl)-5-[3-(oxan-4-yl)pyrazol-1-yl]imidazo[4,5-b]pyridin-3-yl]-2,3-dihydro-1H-inden-1-yl]amino}piperidin-1-yl)prop-2-en-1-one], the IC50 is 0.0807 µM in test [1] (Homo sapiens, LAPC4, 72 h); 0.00719 µM at AKT1 E17K; 0.158 µM on AKT1 WT; 0.0242 µM on AKT2.

For `C=CC(=O)N1CCC(N[C@H]2CCc3cc(-n4c(-c5cccnc5N)nc5ccc(-n6cccn6)nc54)ccc32)C(C#N)C1` (single isomer, unassigned) [Example 155, (3*,4*)-1-acryloyl-4-(((S)-5-(2-(2-aminopyridin-3-yl)-5-(1H-pyrazol-1-yl)-3H-imidazo[4,5-b]pyridin-3-yl)-2,3-dihydro-1H-inden-1-yl)amino)piperidine-3-carbonitrile], the IC50 was 0.49 µM in test [1] (72 h), over 1 µM at AKT1 E17K, 0.0836 µM on AKT1 WT and 1.23 µM at AKT2.

Consider `C=CC(=O)N1CCC(N[C@H]2CCc3cc(-n4c(-c5cccnc5N)nc5ccc(-n6cccn6)nc54)ccc32)CC12CCC2` (single isomer, unassigned) [Example 94, 1-((*)-8-(((S)-5-(2-(2-aminopyridin-3-yl)-5-(1H-pyrazol-1-yl)-3H-imidazo[4,5-b]pyridin-3-yl)-2,3-dihydro-1H-inden-1-yl)amino)-5-azaspiro[3.5]nonan-5-yl)prop-2-en-1-one], for which the IC50 stood at 1.17 µM in test [1] (72 h), 0.652 µM on AKT1 E17K, 0.147 µM on AKT1 WT and 2.64 µM on AKT2.

In the case of `C=CC(=O)N1CCC(N[C@H]2CCc3cc(-n4c(-c5cccnc5N)nc5ccc(C6CC6)nc54)ccc32)C(C)C1` (single isomer, unassigned) [Example 232, 1-((3*,4*)-4-(((S)-5-(2-(2-aminopyridin-3-yl)-5-cyclopropyl-3H-imidazo[4,5-b]pyridin-3-yl)-2,3-dihydro-1H-inden-1-yl)amino)-3-methylpiperidin-1-yl)prop-2-en-1-one], the IC50 came out at 0.651 µM in test [1] (72 h), 0.0208 µM at AKT1 E17K, 1.08 µM at AKT1 WT and 0.168 µM on AKT2.

Turning to `C=CC(=O)N1CCC(N[C@H]2CCc3cc(-n4c(-c5cccnc5N)nc5ccc(-n6cccn6)nc54)ccc32)C(O)C1` (single isomer, unassigned) [Example 140, 1-[(3*,4*)-4-{[(1S)-5-[2-(2-aminopyridin-3-yl)-5-(pyrazol-1-yl)imidazo[4,5-b]pyridin-3-yl]-2,3-dihydro-1H-inden-1-yl]amino}-3-hydroxypiperidin-1-yl]prop-2-en-1-one], the IC50 was 1.49 µM in test [1] (72 h), over 1 µM at AKT1 E17K, 0.37 µM at AKT1 WT and 3.58 µM at AKT2.

For `C=CC(=O)N1CCC(N[C@@H]2c3ccc(-n4c(-c5cccnc5N)nc5ccc(-n6ccc(F)n6)nc54)cc3CC2F)C[C@H]1C` (single isomer, unassigned) [Example 276, 1-((2R,4*)-4-(((1R,2*)-5-(2-(2-aminopyridin-3-yl)-5-(3-fluoro-1H-pyrazol-1-yl)-3H-imidazo[4,5-b]pyridin-3-yl)-2-fluoro-2,3-dihydro-1H-inden-1-yl)amino)-2-methylpiperidin-1-yl)prop-2-en-1-one], the IC50 in test [1] (72 h) worked out at 0.378 µM; at AKT1 E17K, 0.0307 µM; at AKT1 WT, 1.35 µM; on AKT2, 0.106 µM.

For `C=CC(=O)N1CCC(N[C@H]2CCc3cc(-n4c(-c5cccnc5N)nc5ccc(-n6cccn6)nc54)ccc32)C[C@@H]1C` (single isomer, unassigned) [Example 65, 1-((2S,4*)-4-(((S)-5-(2-(2-aminopyridin-3-yl)-5-(1H-pyrazol-1-yl)-3H-imidazo[4,5-b]pyridin-3-yl)-2,3-dihydro-1H-inden-1-yl)amino)-2-methylpiperidin-1-yl)prop-2-en-1-one], the IC50 was determined as 0.203 µM in test [1] (72 h), 0.0583 µM on AKT1 E17K, 0.0296 µM on AKT1 WT and 0.397 µM at AKT2.

Consider `C=CC(=O)N1CC2(CCCC(N[C@H]3CCc4cc(-n5c(-c6cccnc6N)nc6ccc(-n7cccn7)nc65)ccc43)C2)C1` (single isomer, unassigned) [Example 79, 1-((*)-6-(((S)-5-(2-(2-aminopyridin-3-yl)-5-(1H-pyrazol-1-yl)-3H-imidazo[4,5-b]pyridin-3-yl)-2,3-dihydro-1H-inden-1-yl)amino)-2-azaspiro[3.5]nonan-2-yl)prop-2-en-1-one], for which the IC50 in test [1] (Homo sapiens, LAPC4, 72 h) stood at 0.0168 µM; at AKT1 E17K it was 0.0142 µM; at AKT1 WT, 0.0119 µM; on AKT2 it was 0.0271 µM.

Consider `CC(C)=CC(=O)N1CCC(N[C@H]2CCc3cc(-n4c(-c5cccnc5N)nc5ccc(-n6cccn6)nc54)ccc32)CC1` [Example 185, 1-(4-{[(1S)-5-[2-(2-aminopyridin-3-yl)-5-(pyrazol-1-yl)imidazo[4,5-b]pyridin-3-yl]-2,3-dihydro-1H-inden-1-yl]amino}piperidin-1-yl)-3-methylbut-2-en-1-one], for which the IC50 was found to be 4.13 µM in test [1] (Homo sapiens, LAPC4, 72 h); 0.0532 µM on AKT1 E17K; 2.17 µM on AKT1 WT; 0.912 µM on AKT2.

For the compound `C=CC(=O)N1CCC(N[C@H]2CCc3cc(-n4c(-c5cccnc5N)nc5ccc(-n6ccc(COC)n6)nc54)ccc32)CC1` [Example 280, 1-(4-{[(1S)-5-[2-(2-aminopyridin-3-yl)-5-[3-(methoxymethyl)pyrazol-1-yl]imidazo[4,5-b]pyridin-3-yl]-2,3-dihydro-1H-inden-1-yl]amino}piperidin-1-yl)prop-2-en-1-one], the IC50 is 0.104 µM in test [1] (Homo sapiens, LAPC4, 72 h); 0.0203 µM at AKT1 E17K; 0.127 µM on AKT1 WT; 0.0821 µM on AKT2.

As to `C=CC(=O)NC1CC(N[C@H]2CCc3cc(-n4c(-c5cccnc5N)nc5ccc(-n6cccn6)nc54)ccc32)C1` (single isomer, unassigned) [Example 90, N-((1*,3*)-3-(((S)-5-(2-(2-aminopyridin-3-yl)-5-(1H-pyrazol-1-yl)-3H-imidazo[4,5-b]pyridin-3-yl)-2,3-dihydro-1H-inden-1-yl)amino)cyclobutyl)acrylamide], the IC50 was 0.351 µM in test [1] (72 h), 0.156 µM at AKT1 E17K, 0.0412 µM on AKT1 WT and 0.109 µM at AKT2.

On to `CN(C)C/C=C/C(=O)N1CCC(N[C@H]2CCc3cc(-n4c(-c5cccnc5N)nc5ccc(-n6cccn6)nc54)ccc32)CC1` [Example 34, (2E)-1-(4-{[(1S)-5-[2-(2-aminopyridin-3-yl)-5-(pyrazol-1-yl)imidazo[4,5-b]pyridin-3-yl]-2,3-dihydro-1H-inden-1-yl]amino}piperidin-1-yl)-4-(dimethylamino)but-2-en-1-one], for which the IC50 in test [1] (Homo sapiens, LAPC4, 72 h) stood at 0.398 µM; at AKT1 E17K, 0.194 µM; on AKT1 WT it was 0.0551 µM; on AKT2 it was 1.2 µM.

For the compound `C=CC(=O)Nc1cccc(F)c1C(=O)N[C@H]1CCc2cc(-n3c(-c4cccnc4N)nc4ccc(-n5cccn5)nc43)ccc21` [Example 6, N-[(1S)-5-[2-(2-aminopyridin-3-yl)-5-(pyrazol-1-yl)imidazo[4,5-b]pyridin-3-yl]-2,3-dihydro-1H-inden-1-yl]-2-fluoro-6-(prop-2-enamido)benzamide], the IC50 in test [1] (Homo sapiens, LAPC4, 72 h) worked out at 0.144 µM; on AKT1 E17K it was 0.0201 µM; on AKT1 WT, 0.0119 µM; at AKT2 it was 0.022 µM.

Take `CN(C)C/C=C/C(=O)Nc1ccccc1C(=O)N[C@H]1CCc2cc(-n3c(-c4cccnc4N)nc4ccc(-n5cccn5)nc43)ccc21` [Example 16, (S,E)-N-(5-(2-(2-aminopyridin-3-yl)-5-(1H-pyrazol-1-yl)-3H-imidazo[4,5-b]pyridin-3-yl)-2,3-dihydro-1H-inden-1-yl)-2-(4-(dimethylamino)but-2-enamido)benzamide]: the IC50 was 0.183 µM in test [1] (Homo sapiens, LAPC4, 72 h); 0.0527 µM on AKT1 E17K; 0.0113 µM on AKT1 WT; 0.0678 µM at AKT2.
